Laboratory results reported in the supplement of paper PMC10307832.

Legend:
Assay in all cases: relative viability (nuclei count vs DMSO), 5 days (fraction); higher = more cells survive
[1] = compound: CC1=CC=C(C=C1)C(=O)CN2C3=C(CCCC3)SC2=N [Pifithrin_alpha] + C[C@@H](Oc1cc(-c2cnn(C3CCNCC3)c2)cnc1N)c1c(Cl)ccc(F)c1Cl [Crizotinib] (partner 1 µM)
Method in brief: (§1)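 Dosing by pin tool came one day after lung cancer cell lines were seeded in 1536-well plates, using either one drug or a fixed anchor-drug dose plus five library-drug doses (not always all listed) in √10 steps. After 5 days, nuclei were counted on 4× images. Relative viability is treated-well nuclei count divided by vehicle-well nuclei count, and values are medians of duplicate plates.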

[2] = compound: CC1=CC=C(C=C1)C(=O)CN2C3=C(CCCC3)SC2=N [Pifithrin_alpha] + C[C@]1(O)C[C@@H](c2nc(-c3ccc4ccc(-c5ccccc5)nc4c3)c3c(N)nccn32)C1 [Linsitinib] (partner 1 µM)
Method in brief: as §1

[3] = compound: CC1=CC=C(C=C1)C(=O)CN2C3=C(CCCC3)SC2=N [Pifithrin_alpha] + Cc1nc(NC(=O)N2CCC[C@H]2C(N)=O)sc1-c1ccnc(C(C)(C)C(F)(F)F)c1 [Alpelisib] (partner 2 µM)
Method in brief: as §1

[4] = compound: CC1=CC=C(C=C1)C(=O)CN2C3=C(CCCC3)SC2=N [Pifithrin_alpha] + O=C(c1cc(Cc2n[nH]c(=O)c3ccccc23)ccc1F)N1CCN(C(=O)C2CC2)CC1 [Olaparib] (partner 8 µM)
Method in brief: as §1

Cell Line	relative viability ([1]; first compound 1 µM)	relative viability ([1]; first compound 3.162 µM)	relative viability ([1]; first compound 10 µM)	relative viability ([1]; first compound 31.62 µM)	relative viability ([1]; first compound 100 µM)	relative viability ([2]; first compound 1 µM)	relative viability ([2]; first compound 3.162 µM)	relative viability ([2]; first compound 10 µM)	relative viability ([2]; first compound 31.62 µM)	relative viability ([2]; first compound 100 µM)	relative viability ([3]; first compound 1 µM)	relative viability ([3]; first compound 3.162 µM)	relative viability ([3]; first compound 10 µM)	relative viability ([3]; first compound 31.62 µM)	relative viability ([3]; first compound 100 µM)	relative viability ([4]; first compound 1 µM)	relative viability ([4]; first compound 3.162 µM)	relative viability ([4]; first compound 10 µM)	relative viability ([4]; first compound 31.62 µM)	relative viability ([4]; first compound 100 µM)
NCI-H2087	0.95	0.796	0.818	0.706	0.895	0.765	1.03	0.966	0.776	0.778	1.05	1.04	0.862	0.671	0.884	0.617	0.614	0.524	0.236	0.469
NCI-H2126	1.03	1.05	0.886	0.768	0.953	0.696	0.695	0.68	0.661	0.682	0.714	0.714	0.685	0.623	0.655	0.91	1.01	0.924	0.691	0.927
NCI-H2228	0.3	0.424	0.432	0.263	0.376	1.04	0.606	0.583	0.544	0.555	0.697	0.613	0.566	0.531	0.465	0.681	0.634	0.605	0.647	0.549
NCI-H2347	0.647	0.868	0.696	0.55	0.643	0.967	0.913	0.907	0.635	0.95	0.952	0.993	0.991	0.682	1.1	0.603	0.573	0.587	0.541	0.547
NCI-H2405	0.821	0.815	0.796	0.741	0.822		0.869	0.867	0.804	0.776		0.723	0.718	0.675	0.665		0.775	0.725	0.51	0.644
NCI-H3122	0.288	0.323	0.291	0.296	0.321	1.07	1.06	1.03	0.879	1.08	0.859	0.864	0.912	0.812	0.917	0.635	0.48	0.511	0.291	0.389
PC-3 [JPC-3]	0.98	0.998	0.884	0.814	0.849	0.964	0.947	0.862	0.853	0.923	0.953	0.945	0.975	0.884	0.882		1.11		0.564	0.764
PC-14	0.998	0.827	0.741	0.699	0.703	0.975	0.979	0.941	0.764	0.743	0.952	0.953	0.975	0.771	0.848	0.253	0.319	0.218	0.188	0.111
RERF-LC-KJ	0.824	0.69	0.754	0.696	0.659	0.885	0.769	0.745	0.727	0.631	0.983	0.791	0.807	0.707	0.682	0.779	0.4	0.215	0.178	0.175
SK-LU-1	1.01	1.03	0.951	0.824	1.02	1.08	1.16	1.26	0.769	0.832	0.828	1.19	1.13	0.766	1.16	0.418	0.486	0.453	0.354	0.457
SK-MES-1	0.934	0.933	0.976	0.683	0.765	1	1.01	0.93	0.737	0.921	0.882	0.955	0.851	0.626	0.775	0.479	0.493	0.292	0.241	0.373
SW 1573	0.789	0.753	0.857	0.664	0.656	0.82	0.713	0.698	0.768	0.758	0.715	0.824	0.816	0.647	0.729	0.493	0.466	0.413		0.342
UMC-11	0.64	0.758	0.63	0.515	0.757	1.16	1.01	1.1	0.913	1.49	1.09	1.07	1.05	0.842	1.16	0.367	0.365	1.09	0.402	0.249
